Series [1] relates to Staphylococcus aureus ATCC25923. Nature of the series: Bacterial growth inhibition (MIC) test, microtiter plate, CLSI protocol. Particulars: Staphylococcus aureus, ATCC25923; S. aureus 25923; 37° C., 24 hours; read-out: MIC. It is filed as cell-based.
In series [2] the test system is Candida albicans ATCC MYA-2876 (azole sensitive). Nature of the series: Fungal MIC and MFC, microbroth dilution assay (M27-A3). Type of series: cell-based. The conditions noted are these: C. albicans MYA2876 (azole sensitive); for MIC: RPMI 1640, 35° C., 48 hours; for MFC: subculture on Sabouraud dextrose agar after MIC test. Background: Dilution methods test growth across graded concentrations, often in twofold steps.

Series [3] deals with Candida albicans ATCC64124 (azole-resistant). Nature of the series: microbe, parasite or virus in culture. Type of series: cell-based. The conditions noted are these: for MFC: ATCC64124; for MIC: ATCC64124, 48 h.
For the next series, the system named is HeLa cells. Nature of the series: Cell viability assay (MTT), cytotoxicity test. It is filed as cell-based, human. The conditions noted are these: for toxicity to human cervical cancer cell line HeLa: 1.0 to 1000 μg/mL; for toxicity to human cervical cancer cell line HeLa / Viable Cells Percentage Compared to Control: 48 h; for Viable Cells Percentage Compared to Control / effect on growth of cells (number of viable cells): HeLa; for Viable Cells Percentage Compared to Control: MTT; for effect on growth of cells (number of viable cells): wells treated with compound. The procedure:
HeLa cells were grown in commercial DMEM 1× (Gibco) with 10% fetal bovine serum (FBS, Gibco), 100 U/mL penicillin, and 100 μg/mL streptomycin at 37° C. and 5% CO2. The cells were allowed to adhere for 24 h before drug treatment.
The cells were seeded in 96-well microtiter plates (10,000/200 μL). After 24 h of incubation in the media, cells were treated with various concentrations of K608, K4608 and K408 (0.0, 1.0, 10.0, 100.0, 1000 μg/mL and Trition 1×) for 48 h. 20 μL of MTT stock solution (5 mg/mL) was added to each well and incubated for 4 h at 37° C. Upon completion of incubation, the media was carefully removed and washed twice with […] of pbs buffer. Then, 200 μL of DMSO was added to each well; agitated on orbital shaker for 15 min., and the absorbance at 570 nm with 670 nm filter was determined with a microplate reader (Synergy H4). The results are expressed as viability compared with that of control. The experiment was carried out in triplicate in three independent experiments.

The subject of series [4] is azole-resistant Candida albicans ATCC 64124. Nature of the series: Antifungal synergism by checkerboard analysis, K-compound and azole combinations. Type of series: cell-based. Particulars: Candida albicans, compound alone.
Series [5] deals with Fusarium graminearum B4-5A. Nature of the series: microbe, parasite or virus in culture. Type of series: cell-based. Particulars: Fusarium graminearum, B45A, 48 h.
In series [6] the test system is Escherichia coli ATCC 25922. Nature of the series: Bacterial growth inhibition (MIC) test, microtiter plate, CLSI protocol. It is filed as cell-based. The conditions noted are these: Escherichia coli, ATCC25922; E. coli 25922; Luria-Bertani medium, 37° C., 24 hours; read-out: MIC.

Values after ≈ are worked out from the molar mass of the structure shown. Some results are limits rather than exact numbers.

Usually MFC stands for the lowest tested concentration that kills the fungus rather than only halting it. For `CCCCCCCCOC1[C@@H](N)[C@@H](O)C(O[C@@H]2C(N)CC(N)C(O[C@H]3OC(CN)[C@@H](O)[C@H](O)C3O)[C@@H]2O)O[C@@H]1CO` (stereo partly drawn) [Compound K408], the MIC is 125 µg/mL (≈ 209 µM) in series [1]; 1.2 µg/mL (≈ 2.01 µM) in series [2]; 9.8 µg/mL (≈ 16.4 µM) in series [3]; 31.2 µg/mL in series [4] (ATCC64124, K408 checkerboard table, first of two separate experiments); 31.2 µg/mL in series [4] (ATCC64124, K408 checkerboard table, second of two separate experiments); 31.3 µg/mL (≈ 52.5 µM) in series [5]. Besides, the MFC in series [2] turned out to be 2.4 µg/mL (≈ 4.02 µM); in series [3] it was 9.8 µg/mL (≈ 16.4 µM). Moreover, in the series on HeLa cells, the “toxicity to human cervical cancer cell line HeLa” value is reported as “not toxic”. The “Viable Cells Percentage Compared to Control” value in the series on HeLa cells (1 μg/mL) is 139.37%; with HeLa cells (10 μg/mL), 156.92%; in the series on HeLa cells (100 μg/mL), 144.82%; with HeLa cells (1000 μg/mL) it was 138.39%. In the series on HeLa cells, the “effect on growth of cells (number of viable cells)” value is given as “promoted growth of cells”.

With `CCCCCCCCOC[C@H]1OC(O[C@@H]2C(N)CC(N)C(O[C@H]3OC(CN)[C@@H](O)[C@H](O)C3O)[C@@H]2O)[C@H](O)[C@H](N)C1OCCCCCCCC` (stereo partly drawn) [Compound K4608], the MIC in series [1] was > 250 µg/mL; in series [2] it was 1.2 to 2.4 µg/mL (≈ 1.69 to 3.39 µM); in series [3], 4.9 to 9.8 µg/mL (≈ 6.91 to 13.8 µM); in series [4] (ATCC64124, K4608 checkerboard table), 31.2 µg/mL; in series [6], > 250 µg/mL; in series [5], 15.6 µg/mL (≈ 22 µM). Further, the MFC in series [2] is 2.4 µg/mL (≈ 3.39 µM); in series [3], 9.8 µg/mL (≈ 13.8 µM). Moreover, the “toxicity to human cervical cancer cell line HeLa” value in the series with HeLa cells is given as “not toxic”. Also, the “Viable Cells Percentage Compared to Control” value came to 124.28% in the series with HeLa cells (1 μg/mL), 149.52% with HeLa cells (10 μg/mL), 129.86% in the series on HeLa cells (100 μg/mL) and 122.93% in the series with HeLa cells (1000 μg/mL). In the series on HeLa cells, the “effect on growth of cells (number of viable cells)” value was “promoted growth of cells”.

On to `NC[C@H]1O[C@H](O[C@H]2[C@H](O)[C@@H](O[C@H]3O[C@H](CO)[C@@H](O)[C@H](N)[C@H]3O)[C@H](N)C[C@@H]2N)[C@H](O)[C@@H](O)[C@@H]1O` [Kanamycin, reference compound], for which the MIC in series [1] is 0.5 to 1 µg/mL (≈ 1.03 to 2.06 µM); in series [2] it was 250 to 500 µg/mL (≈ 516 to 1030 µM); in series [3] it was > 500 µg/mL; in series [6], 1 to 4 µg/mL (≈ 2.06 to 8.26 µM); in series [5] it was > 500 µg/mL.

The record behind these values is patent US20160060285A1, “Aminoglycosides, Methods of Synthesis, and Associated Applications” (UTAH STATE UNIVERSITY, priority 2010, published 2016).
